Common to all, as to format: biochemical
The target in one assay is PDE5A (Homo sapiens, UniProt O76074). Put plainly: in vitro PDE inhibition assay, % inhibition at […]. The settings on record: read-out: Inhibition (%) of Compounds at 50 μM / PDE5A.
For assay [1], the target named is T1, PDE4D (phosphodiesterase-4D) (Homo sapiens, UniProt Q08499). Briefly: in vitro PDE inhibition assay (previously reported method).
Assay [2] addresses T1, PDE4D (phosphodiesterase-4D). Briefly: in vitro PDE inhibition assay, % inhibition at […]. The settings on record: read-out: Inhibition (%) of Compounds at 50 μM / PDE4D.

Results on six compounds are retold here after publication PMC3944508, “Six New Tetraprenylated Alkaloids from the South China Sea Gorgonian Echinogorgia pseudossapo” (Marine Drugs, 2014).

Each structure is given as a SMILES string. pIC50: −log10 of the molar value.

T1 sequence (Q08499 whole entry): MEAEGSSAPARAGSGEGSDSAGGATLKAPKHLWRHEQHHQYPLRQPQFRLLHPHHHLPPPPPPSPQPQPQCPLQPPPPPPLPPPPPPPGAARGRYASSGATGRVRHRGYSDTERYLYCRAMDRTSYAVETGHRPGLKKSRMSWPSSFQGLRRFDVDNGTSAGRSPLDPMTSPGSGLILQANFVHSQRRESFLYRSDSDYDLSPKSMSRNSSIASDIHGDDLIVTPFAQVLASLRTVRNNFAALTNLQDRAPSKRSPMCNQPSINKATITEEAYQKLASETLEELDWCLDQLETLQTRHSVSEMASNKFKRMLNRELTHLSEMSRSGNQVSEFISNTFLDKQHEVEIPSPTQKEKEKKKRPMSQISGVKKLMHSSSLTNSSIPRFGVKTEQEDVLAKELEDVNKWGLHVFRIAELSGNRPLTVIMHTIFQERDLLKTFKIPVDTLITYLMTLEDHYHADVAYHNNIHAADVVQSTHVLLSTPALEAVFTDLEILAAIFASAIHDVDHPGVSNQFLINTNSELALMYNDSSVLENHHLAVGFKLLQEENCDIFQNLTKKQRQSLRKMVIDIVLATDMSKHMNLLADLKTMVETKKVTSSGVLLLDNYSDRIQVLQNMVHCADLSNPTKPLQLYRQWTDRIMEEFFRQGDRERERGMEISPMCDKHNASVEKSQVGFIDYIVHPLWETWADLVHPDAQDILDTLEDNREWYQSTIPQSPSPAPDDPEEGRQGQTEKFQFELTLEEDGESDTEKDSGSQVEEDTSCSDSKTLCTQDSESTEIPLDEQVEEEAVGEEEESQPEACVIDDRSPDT

For orientation: pIC50 means the negative decadic logarithm of the IC50, by convention in mol/L. For `CC(C)=CC(=O)C/C(C)=C/CC/C(C)=C/CC/C(C)=C/Cn1cnc2c1c(=O)ncn2C` [compound 1, malonganenone L], the inhibition at 50 µM at PDE5A stood at 53%. For the same compound, the pIC50 in assay [1] was 5.07.

On to `CC(C)=CC(=O)C/C(C)=C\CC/C(C)=C/CC/C(C)=C/Cn1cnc2c1c(=O)ncn2C` [compound 2, malonganenone M], for which the inhibition at 50 µM in assay [2] was 72%.

Turning to `CC(C)=CC(=O)/C=C(\C)CCC/C(C)=C/CC/C(C)=C/Cn1cnc2c1c(=O)ncn2C` [compound 3, malonganenone N], the inhibition at 50 µM in assay [2] turned out to be 81%.

`CNC(=O)c1c(N(C)C=O)ncn1C/C=C(\C)CC/C=C(\C)CC/C=C(\C)CC(=O)C=C(C)C` [compound 4, malonganenone O]: the inhibition at 50 µM in assay [2] came to 79%.

Turning to `CNC(=O)c1c(N(C)C=O)ncn1C/C=C(\C)CC/C=C(\C)CC/C=C(/C)CC(=O)C=C(C)C` [compound 5, malonganenone P], the inhibition at 50 µM in assay [2] was 75%.

The compound `CNC(=O)c1c(N(C)C=O)ncn1C/C=C(\C)CC/C=C(\C)CCC/C(C)=C\C(=O)C=C(C)C` [compound 6, malonganenone Q] gave a pIC50 in assay [1] of 4.69.
